Here are results for one compound from patent EP0264138B1, “Novel compound DC-102 and process for production thereof” (KYOWA HAKKO KOGYO CO., LTD., priority 1986, dated 1988).

The assay relates to lymphocytic leukemia P388. The assay is described as follows: Therapeutical effect against lymphocytic leukemia P388. Format: in vivo, male CDF₁ mice. Conditions: dose 6 mg/kg intraperitoneally. How it is done:
Five male CDF₁ mice each having a weight of about 22 g were used for each group as test animals, and 1 x 10⁶ cells of lymphocytic leukemia P388 were implanted intraperitoneally in the test animals. 24 hours after implantation, 0.2 mℓ of a phosphate buffer saline (hereinafter referred to as PBS) containing DC-102 was intraperitoneally administered. For comparison, 0.2 mℓ of PBS solution containing mitomycin C was intraperitoneally administered 24 hours after implantation of the tumor cells. The mean survival time (MST) after implantation and increased life span (ILS) represented by T/C (T: MST for test groups; C: MST for control group) are shown in Table 3.

Molecules are shown by their SMILES.

In the case of `CO[C@@]12[C@H](COC(N)=O)C3=C(C(=O)C(C)=C(N)C3=O)N1C[C@@H]1N[C@@H]12` [Mitomycin C, mitomycin C], under “24 hours after implantation of 1 x 10⁶ P388 cells”, the MST came out at 17.2 days. Further, the “ILS (T/C)” value (T: MST for test groups, C: MST for control group) amounted to 166.
